Patent publication US10703748B2, “Diazanaphthalen-3-yl carboxamides and preparation and use thereof” (Samumed, LLC, priority 2017, dated 2020)

Tests used:
[1] = system: SW480 colon carcinoma cells; experiment: Cell viability assay (CellTiter-Glo); conditions: Homo sapiens; for EC50: SW480, 96 h; for inhibition at 10 µM: SW480, read-out: percent inhibition at 10 μM
[2] = system: α-smooth muscle actin (aSMA) positive LL29 cells; experiment: Inhibition of the fibrotic process: αSMA staining in TGF-β1 treated LL29 fibroblasts from IPF patients; conditions: Homo sapiens, Fibroblast; for EC50: 96 h; for inhibition at 10 µM: read-out: percentage in parentheses after EC50 >10
[3] = target: GSK3β kinase (Homo sapiens, UniProt P49841); experiment: GSK3β kinase activity (Ser/Thr 09 peptide Z-lyte FRET assay); format: biochemical; conditions: recombinant kinase, 46 μM ATP, one hour at room temperature; read-out: EC50
GSK3β kinase, sequence (P49841 whole entry): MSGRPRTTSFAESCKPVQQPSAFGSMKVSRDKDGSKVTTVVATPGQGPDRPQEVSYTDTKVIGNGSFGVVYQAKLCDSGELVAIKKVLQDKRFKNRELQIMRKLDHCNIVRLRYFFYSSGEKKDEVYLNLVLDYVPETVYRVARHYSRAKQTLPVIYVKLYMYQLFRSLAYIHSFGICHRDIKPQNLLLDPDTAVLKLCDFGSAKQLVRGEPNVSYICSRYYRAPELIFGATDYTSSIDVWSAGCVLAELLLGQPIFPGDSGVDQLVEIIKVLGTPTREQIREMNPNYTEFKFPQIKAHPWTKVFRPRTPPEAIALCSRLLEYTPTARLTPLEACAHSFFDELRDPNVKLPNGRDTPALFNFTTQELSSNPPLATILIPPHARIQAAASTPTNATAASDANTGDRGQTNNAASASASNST

[4] = target: DYRK1A kinase (Homo sapiens, UniProt Q13627); experiment: DYRK1A kinase activity (Ser/Thr 18 peptide Z-lyte FRET assay); format: biochemical; conditions: recombinant DYRK1A, 30 μM ATP, one hour at room temperature;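 further: kinase activity read as coumarin/fluorescein emission ratio after development step, with unphosphorylated and phosphorylated peptide forms setting 0% and 100% controls, values from dose-response curves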
[5] = system: IL-6; experiment: IL-6 inhibition in LPS-stimulated human peripheral blood mononuclear cells (HTRF); conditions: Homo sapiens, PBMC; for EC50: 22 h; for inhibition at 10 µM: read-out: percentage in parentheses after EC50 >10
[6] = system: Wnt-responsive Sp5-Luc reporter in SW480 colon carcinoma cells; experiment: Screening assay for Wnt activity (Sp5-Luc reporter gene assay); conditions: Homo sapiens; for EC50: SW480; for inhibition at 10 µM: SW480, read-out: percent inhibition at 10 μM
Description: The screening assay for Wnt activity is described as follows.
SW480 colon carcinoma cells were transduced with a lentiviral vector expressing luciferase with a human Sp5 promoter consisting of a sequence of eight TCF/LEF binding sites. […] These stably transduced SW480 cells were expanded in cell culture and used for all further screening activities. Each compound was dissolved in DMSO as a 10 mM stock and used to prepare compound source plates. Serial dilution (1:3, 10-point dose-response curves starting from 10 μM) and compound transfer was performed using the ECHO 550 (Labcyte, Sunnyvale, Calif.) into 384-well white solid bottom assay plates (Greiner Bio-One) with appropriate DMSO backfill for a final DMSO concentration of 0.1%. […] Following incubation, 15 μl of BriteLite Plus luminescence reagent (Perkin Elmer) was added to each well of the 384-well assay plates. The plates were placed on an orbital shaker for 2 min and then luminescence was quantified using the Envision (Perkin Elmer) plate reader.

Cc1nnc(-c2cnc3cnc(NC(=O)c4ccnc(N5CCN(C)CC5)c4)cc3c2)s1 [Compound 3470, N-(3-(5-Methyl-1,3,4-thiadiazol-2-yl)-1,7-naphthyridin-6-yl)-2-(4-methylpiperazin-1-yl)isonicotinamide]
EC50 [1]: 3.96 µM | EC50 [2]: 3.23 µM | EC50 [3]: > 10 µM | EC50 [4]: 0.11 µM | EC50 [5]: > 10 µM | inhibition at 10 µM [5]: 9.4% | EC50 [6]: 5.48 µM

Cc1nnc(-c2cnc3cnc(NC(=O)c4ccnc(SC5CCN(C)CC5)c4)cc3c2)s1 [Compound 3474, N-(3-(5-Methyl-1,3,4-thiadiazol-2-yl)-1,7-naphthyridin-6-yl)-2-((1-methylpiperidin-4-yl)thio)isonicotinamide]
EC50 [1]: > 10 µM | inhibition at 10 µM [1]: 17.1% | EC50 [2]: > 10 µM | inhibition at 10 µM [2]: 37% | EC50 [3]: > 10 µM | EC50 [4]: 0.071 µM | EC50 [5]: > 10 µM | inhibition at 10 µM [5]: 3.9% | EC50 [6]: > 10 µM | inhibition at 10 µM [6]: 1.9%

CN1CCN(c2cc(C(=O)Nc3cc4cc(-c5ccc(N)nc5)cnc4cn3)ccn2)CC1 [Compound 3527, N-(3-(6-Aminopyridin-3-yl)-1,7-naphthyridin-6-yl)-2-(4-methylpiperazin-1-yl)isonicotinamide]
EC50 [1]: > 10 µM | inhibition at 10 µM [1]: 41.8% | EC50 [2]: 3.5 µM | EC50 [3]: > 10 µM | EC50 [4]: 0.294 µM | EC50 [5]: > 10 µM | inhibition at 10 µM [5]: 0% | EC50 [6]: > 10 µM | inhibition at 10 µM [6]: 42.5%

O=C(Nc1cc2cc(-c3cncc(OCC4CNC4)n3)cnc2cn1)c1ccc(F)cc1 [Compound 3612, N-(3-(6-(Azetidin-3-ylmethoxy)pyrazin-2-yl)-1,7-naphthyridin-6-yl)-4-fluorobenzamide]
EC50 [1]: 2.83 µM | EC50 [2]: 3.9 µM | EC50 [3]: > 10 µM | EC50 [4]: 0.487 µM | EC50 [5]: 5.05 µM | EC50 [6]: 3.92 µM

Cn1cc(-c2cc3cc(NC(=O)C(C)(C)F)ncc3cn2)nn1 [Compound 3960, 2-Fluoro-2-methyl-N-(6-(1-methyl-1H-1,2,3-triazol-4-yl)-2,7-naphthyridin-3-yl)propanamide]
EC50 [1]: > 10 µM | inhibition at 10 µM [1]: 38.5% | EC50 [2]: > 10 µM | inhibition at 10 µM [2]: 23.5% | EC50 [3]: 1.5 µM | EC50 [4]: 1.01 µM | EC50 [5]: > 10 µM | inhibition at 10 µM [5]: 7% | EC50 [6]: > 10 µM | inhibition at 10 µM [6]: 44.8%

Cn1cc(-c2cc3cc(NC(=O)C4CCN(CC5(C(F)(F)F)CC5)CC4)ncc3cn2)nn1 [Compound 3974, N-(6-(1-Methyl-1H-1,2,3-triazol-4-yl)-2,7-naphthyridin-3-yl)-1-((1-(trifluoromethyl)cyclopropyl)methyl)piperidine-4-carboxamide]
EC50 [1]: 4.92 µM | EC50 [2]: 2.02 µM | EC50 [3]: 0.305 µM | EC50 [4]: 0.184 µM | EC50 [5]: > 10 µM | inhibition at 10 µM [5]: 6.4% | EC50 [6]: 0.76 µM

COC1CCN(CC(=O)Nc2cc3cc(-c4cn(C)nn4)ncc3cn2)CC1 [Compound 3985, 2-(4-Methoxypiperidin-1-yl)-N-(6-(1-methyl-1H-1,2,3-triazol-4-yl)-2,7-naphthyridin-3-yl)acetamide]
EC50 [1]: > 10 µM | inhibition at 10 µM [1]: 34.9% | EC50 [2]: 8.38 µM | EC50 [3]: 1.24 µM | EC50 [4]: 0.751 µM | EC50 [5]: > 10 µM | inhibition at 10 µM [5]: 5.2% | EC50 [6]: > 10 µM | inhibition at 10 µM [6]: 49.8%

CNC(=O)c1ccc(C(=O)Nc2cc3cc(-c4cn(C)nn4)ncc3cn2)cn1 [Compound 3999, N^2-Methyl-N^5-(6-(1-methyl-1H-1,2,3-triazol-4-yl)-2,7-naphthyridin-3-yl) pyridine-2,5-dicarboxamide]
EC50 [1]: > 10 µM | inhibition at 10 µM [1]: 27.3% | EC50 [2]: > 10 µM | inhibition at 10 µM [2]: 34.6% | EC50 [3]: > 10 µM | EC50 [4]: 0.454 µM | EC50 [5]: > 10 µM | inhibition at 10 µM [5]: 4.1% | EC50 [6]: > 10 µM | inhibition at 10 µM [6]: 22%

CN(C)C1CCN(c2cc(C(=O)Nc3cc4cc(-c5cn(C)nn5)ncc4cn3)ccn2)CC1 [Compound 4003, 2-(4-(Dimethylamino)piperidin-1-yl)-N-(6-(1-methyl-1H-1,2,3-triazol-4-yl)-2,7-naphthyridin-3-yl)isonicotinamide]
EC50 [1]: > 10 µM | inhibition at 10 µM [1]: 50.4% | EC50 [2]: > 10 µM | inhibition at 10 µM [2]: 24.6% | EC50 [3]: 1.72 µM | EC50 [4]: 0.056 µM | EC50 [5]: > 10 µM | inhibition at 10 µM [5]: 3.7% | EC50 [6]: > 10 µM | inhibition at 10 µM [6]: 34%
